Source: patent publication US11999993B2, “Use of biomarkers in identifying cancer patients that will be responsive to treatment with a PRMT5 inhibitor” (Janssen Pharmaceutica NV, priority 2017, dated 2024)

How the values were obtained:
NCI-H1048 = assay: Cellular sensitivity, lung cancer cell line panel (SCLC); format: cell-based; settings: Homo sapiens, NCI-H1048, PIK3CA H1047R
H69V = assay: as above; format: cell-based; settings: PIK3CA G106_R108del
EPLC272H = assay: Lung cell line panel sensitivity, Cyclin D1 pathway amplified NSCLC; format: cell-based; settings: Homo sapiens, EPLC-272H, Adenocarcinoma
NCI-H441 = assay: Proliferation sensitivity, NSCLC U2AF1-S34F cell panel; format: cell-based; settings: Homo sapiens, Adenocarcinoma
HCC78 = assay: as above; format: cell-based; settings: Homo sapiens, Adenocarcinoma
LC-2/ad = assay: as above; format: cell-based; settings: Homo sapiens, Adenocarcinoma
HLC1 = assay: Lung cell line panel sensitivity, Cyclin D1 pathway amplified NSCLC; format: cell-based; settings: HLC1, CDK6 amplified, Squamous Cell Carcinoma
NCI-H226 = assay: as above; format: cell-based; settings: Homo sapiens; NCI-H226, CDK4 amplified, Adenocarcinoma
LU99a = assay: Cellular sensitivity, lung cancer cell line panel (SCLC); format: cell-based; settings: Homo sapiens, LU-99A, PIK3CA T1025A
MCL xenograft models = settings: multiple MCL xenograft models; Chan-Penebre et al. 2015; cited from earlier work
PRMT5 = PRMT5 (Homo sapiens, UniProt O14744); settings: Chan-Penebre et al., Nat Chem Biol 2015; cited from earlier work
PRMT5, sequence (O14744 whole entry): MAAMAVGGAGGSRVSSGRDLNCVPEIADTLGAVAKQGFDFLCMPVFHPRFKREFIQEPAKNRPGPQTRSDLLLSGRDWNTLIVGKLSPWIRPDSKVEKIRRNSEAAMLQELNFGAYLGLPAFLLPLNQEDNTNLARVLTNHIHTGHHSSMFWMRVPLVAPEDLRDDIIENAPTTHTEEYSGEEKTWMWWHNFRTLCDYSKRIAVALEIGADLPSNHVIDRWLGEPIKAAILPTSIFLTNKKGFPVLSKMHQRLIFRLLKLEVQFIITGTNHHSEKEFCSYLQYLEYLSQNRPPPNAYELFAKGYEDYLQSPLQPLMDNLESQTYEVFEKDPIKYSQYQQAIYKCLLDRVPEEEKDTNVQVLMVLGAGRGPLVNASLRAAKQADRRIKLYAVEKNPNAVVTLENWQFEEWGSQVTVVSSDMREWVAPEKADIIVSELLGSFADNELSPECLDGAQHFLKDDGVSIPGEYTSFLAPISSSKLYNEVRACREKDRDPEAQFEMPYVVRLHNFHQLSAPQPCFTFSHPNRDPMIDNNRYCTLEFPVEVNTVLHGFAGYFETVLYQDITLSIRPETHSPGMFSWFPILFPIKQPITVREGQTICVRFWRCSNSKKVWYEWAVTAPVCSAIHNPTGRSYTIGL
PRMT5, sequence (Q9BQA1 whole entry partner): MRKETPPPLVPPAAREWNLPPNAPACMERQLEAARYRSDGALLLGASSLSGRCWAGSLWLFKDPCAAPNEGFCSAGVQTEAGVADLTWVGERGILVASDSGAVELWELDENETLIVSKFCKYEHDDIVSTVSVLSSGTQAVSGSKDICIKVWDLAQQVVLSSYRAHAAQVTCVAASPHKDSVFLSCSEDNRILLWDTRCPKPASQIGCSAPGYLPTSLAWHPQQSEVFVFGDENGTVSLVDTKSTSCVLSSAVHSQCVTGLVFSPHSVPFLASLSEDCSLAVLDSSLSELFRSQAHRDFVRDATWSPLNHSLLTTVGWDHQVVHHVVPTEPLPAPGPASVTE

Row | GI50 (NCI-H1048) [nM] | GI50 (H69V) [nM] | GI50 (NCI-H441) [nM] | GI50 (HCC78) [nM] | GI50 (NCI-H226) [nM] | GI50 (LU99a) [nM] | SMILES | GI50 (EPLC272H) [nM] | GI50 (LC-2/ad) [nM] | GI50 (HLC1) [nM] | anti-tumor activity (MCL xenograft models) | PRMT5 inhibitor potency (PRMT5)
1 | 94.6 | 85.6 | 98.4 | 108 | 205 | 129 | Nc1ncnc2c1ccn2[C@@H]1O[C@H](COc2ccc3cc(Br)cnc3c2)[C@@H](O)[C@H]1O [Compound 2] | 98.5 | 116 | 96.4 |  | 
2 |  |  |  |  |  |  | O=C(NC[C@H](O)CN1CCc2ccccc2C1)c1cc(NC2COC2)ncn1 [EPZ015666] |  |  |  | anti-tumor activity in multiple MCL xenograft models | sub-nanomolar
